Laboratory results taken from patent US11066412B2, “Substituted pyrrolo[2,1-a]phthalazines and benzo[g]pyrrolo[2,1-a]phthalazines for the treatment of cancer” (Academia Sinica, priority 2017, dated 2021).
Where two headings read alike, the source gives them in different places.

Experiments:
[1] = test system: human lymphoblastic leukemia cell line (CCRF-CEM); assay: in vitro cytotoxicity, PrestoBlue assay; assay type: cell-based; settings: read-out: IC50 CCRF-CEM
Procedure: (§1) All representative compounds of Formulae (I-A) and (I-B) were first evaluated for their in vitro cytotoxicity to human lymphoblastic leukemia cell line (CCRF-CEM) and its vinblastine-resistant sub-cell line (CCRF-CEM/VBL) (see Table 1).
(§2) After a 72-hr incubation in various concentrations of the newly synthesized compounds, the cytotoxic effects of them to all cell lines were determined by the PrestoBlue®(Invitrogen) assay using a microplate spectrophotometer. Briefly, at the end of treatment, an aliquot of PrestoBlue® solution was added and then cells were incubated at 37° C. for 1-2 hr. The absorbance at 570 and 600 nm was measured with a microplate reader. […] The ICso is defined by the concentration required to inhibit tumor cell growth by 50%. Data represent the mean±STDEV of three to six independent experiments for each compound.

[2] = test system: non-small cell lung cancer H460; assay: in vitro cytotoxicity, PrestoBlue assay; assay type: cell-based, human; settings: Table 2
Procedure: as §1, §2

[3] = test system: vinblastine-resistant sub-cell line (CCRF-CEM/VBL); assay: in vitro cytotoxicity, PrestoBlue assay; assay type: cell-based, human; settings: for IC50: read-out: IC50 CEM/VBL; for resistance factor (IC50 CEM/VBL vs IC50 of the parent cell line): number in brackets
Procedure: as §1, §2

pancreatic cancer PacaS1 = assay: in vitro cytotoxicity, PrestoBlue assay; assay type: cell-based, human; settings: Table 2
Procedure: as §1, §2

colon cancer HCT-116 = assay: in vitro cytotoxicity, PrestoBlue assay; assay type: cell-based, human; settings: Table 2
Procedure: as §1, §2

[4] = test system: small cell lung cancer H526; assay: in vitro cytotoxicity, PrestoBlue assay; assay type: cell-based, human; settings: read-out: IC50 H526
H82 = assay: in vitro cytotoxicity to SCLC cells; assay type: cell-based, human; settings: Table 3
Procedure: as §2

H1417 = assay: in vitro cytotoxicity to SCLC cells; assay type: cell-based, human; settings: Table 3
Procedure: as §2

H146 = assay: in vitro cytotoxicity to SCLC cells; assay type: cell-based, human; settings: Table 3
Procedure: as §2

H211 = assay: in vitro cytotoxicity to SCLC cells; assay type: cell-based, human; settings: Table 3
Procedure: as §2

[5] = 72-hr incubation, mean ± STDEV of three to six experiments
[6] = Homo sapiens, CCRF-CEM, footnote d: IC50 values in nM

Row | SMILES | IC50 [1, 5] [nM] | IC50 [3, 5] [nM] | resistance factor (IC50 CEM/VBL vs IC50 of the parent cell line) [3] [×] | also measured
1 | Cc1c(CO)c(CO)c2c3ccccc3c(N3CCOCC3)nn12 [BO-2571, (3-Methyl-6-morpholinopyrrolo[2,1-α]phthalazine-1,2-diyl)dimethanol] | 760 ± 30 | 560 ± 60 | 0.74 | IC50 [2]: 2.64 ± 0.52 µM; IC50 Paca SI (pancreatic cancer PacaS1): 2.16 ± 0.09 µM; IC50 (colon cancer HCT-116): 1.67 ± 0.18 µM; IC50 ([4]; Table 2): 0.1 ± 0.01 µM
2 | CCNC(=O)OCc1c(COC(=O)NCC)c2c3ccccc3c(N3CCOCC3)nn2c1C [BO-2573, (3-Methyl-6-morpholinopyrrolo[2,1-a]phthalazine-1,2-diyl)bis(methylene)bis(ethylcarbamate)] | 690 ± 220 | 450 ± 30 | 0.65 | IC50 [2]: 2.48 ± 0.73 µM; IC50 Paca SI (pancreatic cancer PacaS1): 17.23 ± 3.48 µM; IC50 (colon cancer HCT-116): 1.7 ± 0.21 µM; IC50 ([4]; Table 2): 0.21 ± 0.03 µM
3 | Cc1c(COC(=O)NC(C)C)c(COC(=O)NC(C)C)c2c3ccccc3c(N3CCOCC3)nn12 [BO-2574] | 1170 ± 180 | 960 ± 160 | 0.82 | 
4 | CCNC(=O)OCc1c(COC(=O)NCC)c2c3ccccc3c(N3CCOCC3)nn2c1CC [BO-2625] | 3440 ± 820 | 5110 ± 910 | 1.48 | 
5 | CCc1c(COC(=O)NC(C)C)c(COC(=O)NC(C)C)c2c3ccccc3c(N3CCOCC3)nn12 [BO-2626] | 3680 ± 250 | 1580 ± 200 | 0.43 | 
6 | COc1ccc(-c2c(CO)c(CO)c3c4ccccc4c(N4CCOCC4)nn23)cc1 [BO-2629] | 6630 ± 1740 | 5750 ± 620 | 0.86 | IC50 [2]: 18.7 ± 1.81 µM; IC50 Paca SI (pancreatic cancer PacaS1): 36.63 ± 1.04 µM; IC50 (colon cancer HCT-116): 5.2 ± 0.43 µM; IC50 ([4]; Table 2): 1.95 ± 0.26 µM
7 | CCNC(=O)OCc1c(COC(=O)NCC)c2c3ccccc3c(N3CCOCC3)nn2c1-c1ccc(OC)cc1 [BO-2630] | 6120 ± 880 | 7210 ± 250 | 1.18 | 
8 | COc1ccc(-c2c(COC(=O)NC(C)C)c(COC(=O)NC(C)C)c3c4ccccc4c(N4CCOCC4)nn23)cc1 [BO-2631] | 2850 ± 1520 | 3070 ± 430 | 1.07 | 
9 | Cc1c(COC(=O)NC(C)C)c(COC(=O)NC(C)C)c2c3ccccc3c(N3CCCC3)nn12 [BO-2717] | 4110 ± 150 | 3160 ± 180 | 0.77 | 
10 | Cc1c(CO)c(CO)c2c3ccccc3c(N3CCCCC3)nn12 [BO-2720] | 1040 ± 120 | 1330 ± 130 | 1.28 | 
11 | CCNC(=O)OCc1c(COC(=O)NCC)c2c3ccccc3c(N3CCCCC3)nn2c1C [BO-2721] | 1280 ± 90 | 1230 ± 200 | 0.96 | 
12 | Cc1c(COC(=O)NC(C)C)c(COC(=O)NC(C)C)c2c3ccccc3c(N3CCCCC3)nn12 [BO-2722] | 1920 ± 110 | 1730 ± 90 | 0.90 | 
13 | CCNC(=O)OCc1c(COC(=O)NCC)c2c3cc4ccccc4cc3c(N3CCOCC3)nn2c1C [BO-2756] | 310 ± 20 | 320 ± 40 | 1.03 | IC50 ([4]; Table 3): 0.15 ± 0.087 µM; IC50 (H82): 0.74 ± 0.39 µM; IC50 (H1417): 0.81 ± 0.02 µM; IC50 (H146): 1.51 ± 0.83 µM; IC50 (H211): 0.13 ± 0.1 µM
14 | CCNC(=O)OCc1c(COC(=O)NCC)c2c3cc4ccccc4cc3c(N3CCCCC3)nn2c1C [BO-2757] | 950 ± 50 | 1200 ± 140 | 1.26 | IC50 ([4]; Table 3): 0.54 ± 0.18 µM; IC50 (H82): 1.58 ± 0.01 µM; IC50 (H1417): 3.94 ± 0.11 µM; IC50 (H146): 4.19 ± 0.7 µM; IC50 (H211): 1.03 ± 0.25 µM
15 | CCNC(=O)OCc1c(COC(=O)NCC)c2c3cc4ccccc4cc3c(N3CCCC3)nn2c1C [BO-2763, (3-Methyl-6-(pyrrolidin-1-yl)benzo[g]pyrrolo[2,1-α]phthalazine-1,2-diyl)-bis(methylene) bis(ethylcarbamate)] | 420 ± 70 | 250 ± 60 | 0.59 | IC50 ([4]; Table 3): 0.18 ± 0.06 µM; IC50 (H82): 1.58 ± 1.37 µM; IC50 (H1417): 1.15 ± 0.15 µM; IC50 (H146): 2.16 ± 0.5 µM; IC50 (H211): 0.68 ± 0.59 µM
16 | CCNC(=O)OCc1c(COC(=O)NCC)c2c3cc4ccccc4cc3c(N(C)C)nn2c1C [BO-2772, (6-(Dimethylamino)-3-methylbenzo[g]pyrrolo[2,1-α]phthalazine-1,2-diyl)-bis(methylene) bis(ethylcarbamate)] | 138 ± 8 | 99 ± 6 | 0.71 | IC50 ([4]; Table 3): 0.27 ± 0.31 µM; IC50 (H82): 0.52 ± 0.16 µM; IC50 (H1417): 1.01 ± 0.49 µM; IC50 (H146): 1.67 ± 0.24 µM; IC50 (H211): 0.32 ± 0.2 µM
17 | Cc1c(CO)c(CO)c2c3ccccc3c(N(C)C)nn12 [BO-2785] | 3330 ± 390 | 2940 ± 260 | 0.88 | 
18 | CCNC(=O)OCc1c(COC(=O)NCC)c2c3ccccc3c(N(C)C)nn2c1C [BO-2786] | 730 ± 50 | 550 ± 60 | 0.75 | IC50 [2]: 3.47 ± 0.47 µM; IC50 Paca SI (pancreatic cancer PacaS1): 8.01 ± 1.40 µM; IC50 (colon cancer HCT-116): 2.45 ± 0.65 µM; IC50 ([4]; Table 2): 0.57 ± 0.09 µM
19 | Cc1c(COC(=O)NC(C)C)c(COC(=O)NC(C)C)c2c3ccccc3c(N(C)C)nn12 [BO-2787] | 1540 ± 220 | 970 ± 170 | 0.63 | 
20 | CCNC(=O)OCc1c(COC(=O)NCC)c2c3cc4ccccc4cc3c(N3CCC(N4CCCCC4)CC3)nn2c1C [BO-2793] | 57 ± 4 | 104 ± 28 | 1.82 | IC50 ([4]; Table 3): 0.01 ± 0.003 µM; IC50 (H82): 0.09 ± 0.04 µM; IC50 (H1417): 0.13 ± 0.09 µM; IC50 (H146): 0.31 ± 0.21 µM; IC50 (H211): 0.06 ± 0.02 µM
21 | N.N.O=C([O-])C1(C(=O)[O-])CCC1.[Pt+2] [Carboplatin, reference compound] |  |  |  | IC50 ([4]; Table 3): 6.43 ± 0.14 µM; IC50 (H1417): 8.64 ± 1.93 µM; IC50 (H146): 37.1 ± 6.38 µM; IC50 (H211): 13.9 ± 1.56 µM
22 | COc1cc([C@@H]2c3cc4c(cc3[C@@H](O[C@@H]3O[C@@H]5CO[C@@H](C)O[C@H]5[C@H](O)[C@H]3O)[C@H]3COC(=O)[C@H]23)OCO4)cc(OC)c1O [Etoposide, reference compound] |  |  |  | IC50 ([4]; Homo sapiens, NCI-H526, Table 3): 0.2 ± 0.26 µM; IC50 (H82; Homo sapiens, NCI-H82): 1.08 ± 0.42 µM; IC50 (H1417; Homo sapiens, NCI-H1417): 4.53 ± 3.18 µM; IC50 (H146; Homo sapiens, NCI-H146): 2.91 ± 0.17 µM; IC50 (H211; Homo sapiens, NCI-H211): 0.07 ± 0.01 µM
23 | CC[C@]1(O)C[C@@H]2CN(CCc3c([nH]c4ccccc34)[C@@](C(=O)OC)(c3cc4c(cc3OC)N(C)[C@H]3[C@@](O)(C(=O)OC)[C@H](OC(C)=O)[C@]5(CC)C=CCN6CC[C@]43[C@@H]65)C2)C1 [Vinblastine, reference compound] |  |  | 278.3 | IC50 [1, 6]: 1.41 ± 0.1 nM; IC50 [3, 6]: 392 ± 44.8 nM
